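Cultured in 96-well plates, cells were exposed to test compound for 48 hours across five concentrations. GI50 = concentration required for 50% inhibition of growth.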 The source made the active and inactive calls. Rule as the data show it: active = GI50 up to about 1.1 µM and inactive = higher.
How the values were obtained:
Experiment in all cases: NCI anticancer screen, dose series, 48 h
[1] = tested on: COLO 205
[2] = tested on: SK-OV-3
[3] = tested on: Hs-578T
[4] = tested on: UACC-62
[5] = tested on: HCT-116
[6] = tested on: OVCAR-4
[7] = tested on: NCI-H460
[8] = tested on: TK-10
[9] = tested on: UO-31
[10] = tested on: HCC 2998
[11] = tested on: KM12
[12] = tested on: MDA-MB-231
[13] = tested on: RXF 393
[14] = tested on: A549
[15] = tested on: CCRF-CEM
[16] = tested on: CAKI-1
[17] = tested on: HL-60
[18] = tested on: NCI-H226
[19] = tested on: HT-29
[20] = tested on: Malme-3M
[21] = tested on: DU-145
[22] = tested on: HOP-62
[23] = tested on: SNB-75
[24] = tested on: OVCAR-8
[25] = tested on: NCI/ADR-RES
[26] = tested on: U-251
[27] = tested on: SNB-19
[28] = tested on: SF-539
[29] = tested on: 786-0
[30] = tested on: LOX IMVI
[31] = tested on: MOLT-4
[32] = tested on: SK-MEL-28
[33] = tested on: SR
[34] = tested on: MDA-MB-435
[35] = tested on: IGROV-1
[36] = tested on: UACC-257
[37] = tested on: K562
[38] = tested on: NCI-H522
[39] = tested on: HCT-15
[40] = tested on: EKVX
[41] = tested on: SN12C
[42] = tested on: BT-549
[43] = tested on: SK-MEL-2
[44] = tested on: MCF7
[45] = tested on: ACHN
[46] = tested on: SF-268
[47] = tested on: SF-295
[48] = tested on: M14
[49] = tested on: PC-3
[50] = tested on: OVCAR-5
[51] = tested on: RPMI-8226
[52] = tested on: T47D
[53] = tested on: MDA-N
[54] = tested on: HOP-92
[55] = tested on: SW-620
[56] = tested on: OVCAR-3
[57] = tested on: SK-MEL-5
[58] = tested on: NCI-H23

With `N#C/C(=C\c1ccc(F)cc1)c1nc2ccccc2c(=O)[nH]1` the GI50 [1] was > 100 µM (inactive), the GI50 [2] was > 100 µM (inactive) and the GI50 [3] was 79.6 µM (inactive). For the same molecule, the GI50 [4] was > 100 µM (inactive), the GI50 [5] was > 100 µM (inactive) and the GI50 [6] was > 100 µM (inactive). The GI50 [7] was > 100 µM (inactive), the GI50 [8] was > 100 µM (inactive) and the GI50 [9] was > 100 µM (inactive). The GI50 [10] was > 100 µM (inactive), the GI50 [11] was 3.91 µM (inactive) and the GI50 [12] was 48.3 µM (inactive). For the same molecule, the GI50 [13] was > 100 µM (inactive), the GI50 [14] was > 100 µM (inactive) and the GI50 [15] was > 100 µM (inactive). For the same molecule, the GI50 [16] was > 100 µM (inactive), the GI50 [17] was > 100 µM (inactive) and the GI50 [18] was > 100 µM (inactive). The GI50 [19] was > 100 µM (inactive), the GI50 [20] was > 100 µM (inactive) and the GI50 [21] was > 100 µM (inactive). The GI50 [22] was 47 µM (inactive), the GI50 [23] was 25.9 µM (inactive) and the GI50 [24] was > 100 µM (inactive). The GI50 [25] was > 100 µM (inactive), the GI50 [26] was 70.6 µM (inactive) and the GI50 [27] was > 100 µM (inactive). The GI50 [28] was > 100 µM (inactive), the GI50 [29] was > 100 µM (inactive) and the GI50 [30] was > 100 µM (inactive). For the same molecule, the GI50 [31] was 26.1 µM (inactive), the GI50 [32] was > 100 µM (inactive) and the GI50 [33] was > 100 µM (inactive). The GI50 [34] was > 100 µM (inactive), the GI50 [35] was > 100 µM (inactive) and the GI50 [36] was > 100 µM (inactive). For the same molecule, the GI50 [37] was > 100 µM (inactive), the GI50 [38] was > 100 µM (inactive) and the GI50 [39] was greater than 100 µM. For the same molecule, the GI50 [40] was > 100 µM (inactive), the GI50 [41] was > 100 µM (inactive) and the GI50 [42] was 36.8 µM (inactive). The GI50 [43] was > 100 µM (inactive), the GI50 [44] was > 100 µM (inactive) and the GI50 [45] was > 100 µM (inactive). For the same molecule, the GI50 [46] was 58.6 µM (inactive), the GI50 [47] was > 100 µM (inactive) and the GI50 [48] was > 100 µM (inactive). For the same molecule, the GI50 [49] was > 100 µM (inactive), the GI50 [50] was > 100 µM (inactive) and the GI50 [51] was > 100 µM (inactive). For the same molecule, the GI50 [52] was > 100 µM (inactive), the GI50 [53] was > 100 µM (inactive) and the GI50 [54] was 82.2 µM (inactive). For the same molecule, the GI50 [55] was > 100 µM (inactive).
In the case of `O=C1CCCC/C1=C\c1ccc(Br)cc1`, the GI50 [1] is reported as 17.6 µM (inactive), the GI50 [2] is reported as 24.8 µM (inactive) and the GI50 [3] is reported as 24.5 µM (inactive). The GI50 [4] was 6.61 µM (inactive), the GI50 [5] was 17.3 µM (inactive) and the GI50 [6] was 22 µM (inactive). For the same molecule, the GI50 [7] was 35.5 µM (inactive), the GI50 [8] was 16.7 µM (inactive) and the GI50 [9] was 16.1 µM (inactive). For the same molecule, the GI50 [10] was 23.2 µM (inactive), the GI50 [11] was 2.42 µM (inactive) and the GI50 [12] was 16.8 µM (inactive). For the same molecule, the GI50 [14] was 22.4 µM (inactive), the GI50 [56] was 20.7 µM (inactive) and the GI50 [15] was 12.6 µM (inactive). For the same molecule, the GI50 [16] was 17 µM (inactive), the GI50 [17] was 2.4 µM (inactive) and the GI50 [20] was 7.73 µM (inactive). For the same molecule, the GI50 [21] was 40 µM (inactive), the GI50 [22] was 20.7 µM (inactive) and the GI50 [23] was 16 µM (inactive). The GI50 [24] was 15.7 µM (inactive), the GI50 [25] was 3.73 µM (inactive) and the GI50 [26] was 2.99 µM (inactive). The GI50 [27] was 3.69 µM (inactive), the GI50 [28] was 19.9 µM (inactive) and the GI50 [29] was 16.6 µM (inactive). For the same molecule, the GI50 [30] was 39.6 µM (inactive), the GI50 [31] was 2.14 µM (inactive) and the GI50 [32] was 13.7 µM (inactive). The GI50 [33] was 4.2 µM (inactive), the GI50 [34] was 15.8 µM (inactive) and the GI50 [57] was 22.7 µM (inactive). For the same molecule, the GI50 [35] was 19.7 µM (inactive), the GI50 [36] was 26.8 µM (inactive) and the GI50 [37] was 4.33 µM (inactive). For the same molecule, the GI50 [38] was 14.8 µM (inactive), the GI50 [40] was 24.8 µM (inactive) and the GI50 [58] was 16.2 µM (inactive). The GI50 [41] was 17.6 µM (inactive), the GI50 [42] was 14.5 µM (inactive) and the GI50 [43] was 22.6 µM (inactive). The GI50 [44] was 2.71 µM (inactive), the GI50 [45] was 2.75 µM (inactive) and the GI50 [46] was 18.5 µM (inactive). For the same molecule, the GI50 [47] was 21.1 µM (inactive), the GI50 [48] was 12.4 µM (inactive) and the GI50 [49] was 97.7 µM (inactive). The GI50 [50] was > 10 µM (inactive), the GI50 [51] was 15.7 µM (inactive) and the GI50 [52] was 23.3 µM (inactive). The GI50 [53] was 16.3 µM (inactive), the GI50 [54] was 17.1 µM (inactive) and the GI50 [55] was > 100 µM (inactive).
With `C=C(C)[C@@H]1CCc2c(c(C)cc(O)c(=O)c2O)C1` the GI50 [1] was 1.63 µM (inactive), the GI50 [2] was 1.49 µM (inactive) and the GI50 [3] was 2.16 µM (inactive). For the same molecule, the GI50 [4] was 1.6 µM (inactive), the GI50 [5] was 0.156 µM (active) and the GI50 [6] was 0.146 µM (active). For the same molecule, the GI50 [7] was 0.102 µM (active), the GI50 [8] was 13.1 µM (inactive) and the GI50 [9] was 0.92 µM (active). For the same molecule, the GI50 [10] was 1.76 µM (inactive), the GI50 [11] was 3.03 µM (inactive) and the GI50 [12] was > 52.1 µM (inactive). For the same molecule, the GI50 [13] was 2.6 µM (inactive), the GI50 [14] was 1.17 µM (inactive) and the GI50 [15] was 0.412 µM (active). For the same molecule, the GI50 [16] was 0.13 µM (active), the GI50 [17] was 0.462 µM (active) and the GI50 [18] was 2.72 µM (inactive). For the same molecule, the GI50 [19] was 3.01 µM (inactive), the GI50 [20] was 3.43 µM (inactive) and the GI50 [21] was 2.18 µM (inactive). The GI50 [23] was 3.68 µM (inactive), the GI50 [24] was 0.706 µM (active) and the GI50 [25] was 0.583 µM (active). The GI50 [26] was 1.3 µM (inactive), the GI50 [27] was 1.13 µM (inactive) and the GI50 [28] was 0.6 µM (active). The GI50 [29] was 1.41 µM (inactive), the GI50 [30] was 0.695 µM (active) and the GI50 [31] was 1.4 µM (inactive). For the same molecule, the GI50 [32] was 4.63 µM (inactive), the GI50 [33] was 0.515 µM (active) and the GI50 [34] was 3.13 µM (inactive). For the same molecule, the GI50 [57] was 0.564 µM (active), the GI50 [35] was 0.179 µM (active) and the GI50 [36] was 6.81 µM (inactive). For the same molecule, the GI50 [37] was 0.881 µM (active), the GI50 [38] was 0.247 µM (active) and the GI50 [39] was 0.0838 µM. For the same molecule, the GI50 [40] was 2.49 µM (inactive), the GI50 [58] was 2.58 µM (inactive) and the GI50 [41] was 0.363 µM (active). The GI50 [42] was 8.95 µM (inactive), the GI50 [43] was 4.79 µM (inactive) and the GI50 [44] was 1.48 µM (inactive). For the same molecule, the GI50 [45] was 1.18 µM (inactive), the GI50 [46] was 2.88 µM (inactive) and the GI50 [47] was 2 µM (inactive). For the same molecule, the GI50 [48] was 1.47 µM (inactive), the GI50 [49] was 3.85 µM (inactive) and the GI50 [50] was > 73.1 µM (inactive). The GI50 [51] was 3.57 µM (inactive), the GI50 [52] was 3.8 µM (inactive) and the GI50 [53] was 3.08 µM (inactive). For the same molecule, the GI50 [54] was 0.573 µM (active) and the GI50 [55] was 0.643 µM (active).

Source: ChEMBL document CHEMBL1201862, “PubChem BioAssay data set” (2004)
